This is an account of results in ChEMBL document CHEMBL3045762, “Studies on arylfuran derivatives. Part XI. Synthesis, characterisation and biological studies on some Mannich bases carrying 2,4-dichlorophenylfurfural moiety” (2000).

Each structure is given as a SMILES string. The source made the active and inactive calls. The calls are words filed in the database; no cut-off is given here.

Assay [1] deals with Amaranthus viridis. The assay is described as follows: Pre-emergence herbicidal activity against Amaranthus viridis assessed as reduction of seed germination at 1 ppm after 7 to 21 days by pot test. The assay is classed as functional, organism-based.
Assay [2] has as its system Digitaria sanguinalis. Nature of the assay: Pre-emergence herbicidal activity against Digitaria sanguinalis (hairy crabgrass) assessed as reduction of seed germination at 1 ppm after 7 to 21 days by pot test. The class given is functional, organism-based.
Assay [3] relates to Cynodon dactylon. The assay is described as follows: Post-emergence herbicidal activity against Cynodon dactylon assessed as reduction of seed germination at 0.48 ppm after 5 to 25 days by pot test. The class given is functional, organism-based.
Assay [4] relates to Digitaria sanguinalis. The assay is described as follows: Post-emergence herbicidal activity against Digitaria sanguinalis (hairy crabgrass) assessed as reduction of seed germination at 0.48 ppm after 5 to 25 days by pot test. The assay is classed as functional, organism-based.
Assay [5] concerns Euphorbia hirta. The assay is described as follows: Post-emergence herbicidal activity against Euphorbia hirta assessed as reduction of seed germination at 0.48 ppm after 5 to 25 days by pot test. The class given is functional, organism-based.
Assay [6] relates to Amaranthus viridis. The assay is described as follows: Post-emergence herbicidal activity against Amaranthus viridis assessed as reduction of seed germination at 0.48 ppm after 5 to 25 days by pot test. The class given is functional, organism-based.
Assay [7] relates to Parthenium hysterophorus. The assay is described as follows: Post-emergence herbicidal activity against Parthenium hysterophorus assessed as reduction of seed germination at 0.48 ppm after 5 to 25 days by pot test. The class given is functional, organism-based.
The subject of assay [8] is Plasmopara viticola. The assay is described as follows: Antifungal activity against Plasmopara viticola assessed as infection (reference value: 100%). The assay is classed as functional.
The subject of assay [9] is Parthenium hysterophorus. The assay is described as follows: Post-emergence herbicidal activity against Parthenium hysterophorus assessed as reduction of seed germination at 1000 ppm after 5 to 25 days by pot test. The assay is classed as functional, organism-based.
The subject of assay [10] is Amaranthus viridis. Nature of the assay: Pre-emergence herbicidal activity against Amaranthus viridis assessed as reduction of seed germination at 1000 ppm after 7 to 21 days by pot test. The class given is functional, organism-based.
In assay [11] the test system is Amaranthus viridis. The assay is described as follows: Post-emergence herbicidal activity against Amaranthus viridis assessed as reduction of seed germination at 1000 ppm after 5 to 25 days by pot test. The assay is classed as functional, organism-based.
The subject of assay [12] is Digitaria sanguinalis. Nature of the assay: Pre-emergence herbicidal activity against Digitaria sanguinalis (hairy crabgrass) assessed as reduction of seed germination at 1000 ppm after 7 to 21 days by pot test. The class given is functional, organism-based.
Assay [13] relates to Euphorbia hirta. Nature of the assay: Post-emergence herbicidal activity against Euphorbia hirta assessed as reduction of seed germination at 1000 ppm after 5 to 25 days by pot test. The class given is functional, organism-based.
Assay [14] has as its system Alternaria solani. The assay is described as follows: Antifungal activity against Alternaria solani assessed as fungal growth (reference value: 52 mm). The class given is functional.
The test system of assay [15] is Digitaria sanguinalis. The assay is described as follows: Post-emergence herbicidal activity against Digitaria sanguinalis (hairy crabgrass) assessed as reduction of seed germination at 1000 ppm after 5 to 25 days by pot test. The class given is functional, organism-based.
Assay [16] concerns Fusarium sp. The assay is described as follows: Antifungal activity against Fusarium sp. assessed as fungal growth (reference value: 77 mm). The class given is functional.
The test system of assay [17] is Cynodon dactylon. Nature of the assay: Post-emergence herbicidal activity against Cynodon dactylon assessed as reduction of seed germination at 1000 ppm after 5 to 25 days by pot test. The assay is classed as functional, organism-based.
Assay [18] deals with Amaranthus viridis. Nature of the assay: Post-emergence herbicidal activity against Amaranthus viridis assessed as reduction of seed germination at 1.22 ppm after 5 to 25 days by pot test. The class given is functional, organism-based.
The subject of assay [19] is Cynodon dactylon. Nature of the assay: Post-emergence herbicidal activity against Cynodon dactylon assessed as reduction of seed germination at 1.22 ppm after 5 to 25 days by pot test. The class given is functional, organism-based.
The subject of assay [20] is Digitaria sanguinalis. Nature of the assay: Post-emergence herbicidal activity against Digitaria sanguinalis (hairy crabgrass) assessed as reduction of seed germination at 1.22 ppm after 5 to 25 days by pot test. The assay is classed as functional, organism-based.
Assay [21] concerns Parthenium hysterophorus. Nature of the assay: Post-emergence herbicidal activity against Parthenium hysterophorus assessed as reduction of seed germination at 1.22 ppm after 5 to 25 days by pot test. The assay is classed as functional, organism-based.
The subject of assay [22] is Euphorbia hirta. The assay is described as follows: Post-emergence herbicidal activity against Euphorbia hirta assessed as reduction of seed germination at 1.22 ppm after 5 to 25 days by pot test. The class given is functional, organism-based.
Assay [23] has as its system Amaranthus viridis. Nature of the assay: Pre-emergence herbicidal activity against Amaranthus viridis assessed as reduction of seed germination at 1.50 ppm after 7 to 21 days by pot test. The class given is functional, organism-based.
For assay [24], the system named is Digitaria sanguinalis. The assay is described as follows: Pre-emergence herbicidal activity against Digitaria sanguinalis (hairy crabgrass) assessed as reduction of seed germination at 1.50 ppm after 7 to 21 days by pot test. The class given is functional, organism-based.

Turning to `CCC(CC)Nc1c([N+](=O)[O-])cc(C)c(C)c1[N+](=O)[O-]`, the outcome in assay [1] and in assay [2] was Active.
For `C[n+]1ccc(-c2cc[n+](C)cc2)cc1`, the outcome in assay [3], in assay [4], in assay [5], in [6] and in assay [7] was Active.
With `Fc1ccc(NCn2nc(COc3ccc(Cl)cc3)n(/N=C/c3ccc(-c4ccc(Cl)cc4Cl)o3)c2=S)cc1Cl`, the Activity in assay [8] is 100%; in assay [14], 52 mm; in [16], 75 mm. The outcome in [9], in assay [10], in assay [11], in [12], in [13] and in assay [15] was inactive. For the same compound, the result in assay [17] was inactive.
For the compound `S=c1[nH]nc(COc2ccc(Cl)cc2Cl)n1/N=C/c1ccc(-c2ccc(Cl)cc2Cl)o1`, the values for the Activity in assay [8], in assay [14] and in assay [16] were 100%, 58 mm and 80 mm, respectively. Besides, the result in assay [9], in assay [10], in assay [11], in assay [12], in assay [13] and in assay [15] was inactive. Also, the result in assay [17] was inactive.
As for `O=C(O)CNCP(=O)(O)O`, the result in [18], in [19], in assay [20], in [21] and in assay [22] was Active.
With `Cc1cc(OCc2n[nH]c(=S)n2/N=C/c2ccc(-c3ccc(Cl)cc3Cl)o2)ccc1Cl`, the Activity came out at 100% in assay [8], 56 mm in [14] and 76 mm in [16]. Further, the outcome in assay [9], in assay [10], in assay [11], in assay [12], in [13] and in assay [15] was inactive. Also, the result in [17] was inactive.
Turning to `S=c1[nH]nc(COc2ccccc2Cl)n1/N=C/c1ccc(-c2ccc(Cl)cc2Cl)o1`, the Activity in assay [8] was 100%; in [14] it was 66 mm; in [16] it was 77.5 mm. Moreover, the outcome in assay [9], in assay [10], in [11], in assay [12], in assay [13] and in assay [15] was inactive. Moreover, in assay [17], the result was inactive.
Consider `Fc1ccc(NCn2nc(COc3ccc(Cl)cc3Cl)n(/N=C/c3ccc(-c4ccc(Cl)cc4Cl)o3)c2=S)cc1Cl`, for which the values for the Activity in [8], in assay [14] and in [16] were 100%, 51 mm and 73 mm, respectively. For the same compound, the result in assay [9], in assay [10], in assay [11], in assay [12], in [13] and in assay [15] was inactive. The outcome in [17] was inactive.
In the case of `CCNc1nc(Cl)nc(NC(C)C)n1`, the result in assay [23] and in assay [24] was Active.
On to `Fc1ccc(NCn2nc(COc3ccccc3Cl)n(/N=C/c3ccc(-c4ccc(Cl)cc4Cl)o3)c2=S)cc1Cl`, for which the figures for the Activity in assay [8], in assay [14] and in assay [16] were 100%, 57 mm and 75 mm, respectively. For the same compound, the result in assay [9], in assay [10], in assay [11], in assay [12], in assay [13] and in [15] was inactive. Also, the outcome in [17] was inactive.
Regarding `S=c1[nH]nc(COc2ccc(Cl)cc2)n1/N=C/c1ccc(-c2ccc(Cl)cc2Cl)o1`, the figures for the Activity in assay [8], in assay [14] and in assay [16] were 100%, 60 mm and 79 mm, respectively. Also, the outcome in assay [9], in assay [10], in assay [11], in assay [12], in [13] and in [15] was inactive. Besides, the result in [17] was inactive.
Take `Cc1cc(OCc2nn(CNc3ccc(F)c(Cl)c3)c(=S)n2/N=C/c2ccc(-c3ccc(Cl)cc3Cl)o2)ccc1Cl`: the results for the Activity in assay [8], in assay [14] and in [16] were 100%, 49 mm and 72 mm, respectively. The outcome in assay [9], in [10], in assay [11], in [12], in assay [13] and in assay [15] was inactive. Further, the outcome in assay [17] was inactive.
As to `CCCCC(O)(Cn1cncn1)c1ccc(Cl)cc1Cl` (stereo not given) [HEXACONAZOLE], the Activity in [16] is given as 8 mm.
